pIC50: −log10 of the molar value. Where two headings read alike, the source gives them in different places.
Experiments:
Assay type in all cases: cell-based
[1] = MTT cell viability in parallel with the U1 assay; conditions: human, U1 cells, read-out: U1 TC50
Description: (§1) U1 activation assay. U1 cells obtained from the AIDS Research and Reference Reagent Program were maintained under standard culture conditions in RPMI 1640 supplemented with 10% fetal bovine serum (heat inactivated), 2 mM L-glutamine, 100U/mL penicillin and 100 μg/mL streptomycin. U1 cells contain an integrated copy of a phorbol ester inducible HIV-1 provirus and addition of phytohemagglutinin (PHA) to the cell culture was used to induce virus production. On the day of the assay, the U1 cells were activated with PHA and 250,000 cells were plated in 96-well plates. Test compounds were diluted in media and applied to the cells at final concentrations from 1 to 10,000 nM. Cultures were incubated for 3 days and supernatants harvested. Cell-free virus production was measured by p24 ELISA on culture supernatant. Compound toxicity was determined by MTT cell-viability assay in parallel assays.

[2] = tested on: HIV-1 provirus in U1 cells; assay: U1 activation (latency) assay, p24 ELISA; conditions: for pIC50: Human immunodeficiency virus 1; for IC50: Human immunodeficiency virus 1, read-out: U1 cell IC50 (nM)
Description: as §1

[3] = MTT cell viability run in parallel with the Tat-hybrid assay; conditions: human, Tat-hybrid reporter cell lines (HeLa); for CC50 at 48 h: Table 5, read-out: Tat hybrid TC50; for EC50 at 48 h: Table 6, second 'EC50' entry of the cell, values D/E
Description: (§2) Cells were counted and plated into white 384-well or 96-well cell-culture treated assay plates and compounds were added. After 48 hours, the cells were prepared for luminescence assays that were performed on a plate reader (Tecan Evolution or MD Analyst). The cytotoxicity of each compound was determined in parallel via MTT-based cell viability assays.
as §2, with “Tat hybrid reporter assay. […] Previously characterized thienopyridines and diaminoacridine were used as controls. Cells” for “Cells”, “384-well” for “384-well or 96-well”, “lumincescence” for “luminescence”, “assays. […]” for “assays.”

[4] = tested on: Tat-hybrid reporter cell lines (HeLa); assay: as above; conditions: Table 6; at 50,000 nM
Description: as §2
as §2, with “Tat hybrid reporter assay. […] Previously characterized thienopyridines and diaminoacridine were used as controls. Cells” for “Cells”, “384-well” for “384-well or 96-well”, “lumincescence” for “luminescence”, “assays. […]” for “assays.”

[5] = Table 2, read-out: U1 cell IC50

Compound	CC50 at 3 days ([1]; Table 5) [µM]	pIC50 ([2]; Table 5, read-out: U1 IC50)	CC50 at 48 h [3] [µM]	other results
CCOc1ccc(-c2cncc3sc(C(N)=O)cc23)cc1	< 40	> 7.00	< 40	–
NC(=O)c1cc2c(-c3ccc4c(c3)OCCO4)cncc2s1	< 40	> 7.00	< 40	–
NC(=O)c1sc2cncc(N3CCc4ccccc4C3)c2c1N	< 40	> 7.00	< 40	–
NC(=O)c1sc2cncc(-c3cccc4ccccc34)c2c1N	< 40	> 7.00	> 40	–
COc1cc2c(cc1OC)CN(c1cncc3sc(C(N)=O)c(N)c13)CC2	< 40	> 7.00	< 40	–
NC(=O)c1sc2cncc(N3CCc4sccc4C3)c2c1N	< 40	> 7.00	> 40	–
CN(C)c1ccc(-c2cncc3sc(C(N)=O)c(N)c23)cc1	> 40	> 7.00	< 40	–
NC(=O)c1cc2c(-c3ccc(Oc4ccccc4)cc3)cncc2s1	–	6.30 to 7.00	< 40	–
NC(=O)c1cc2c(N3CCCCC3)cncc2s1	< 40	6.30 to 7.00	> 40	–
NC(=O)c1cc2c(-c3cc4ccccc4o3)cncc2s1	< 40	< 6.30	> 40	–
CNC(=O)c1ccc(-c2cncc3sc(C(N)=O)c(N)c23)cc1	> 40	> 7.00	< 40	–
CN(C)C(=O)c1ccc(-c2cncc3sc(C(N)=O)c(N)c23)cc1	> 40	6.30 to 7.00	< 40	–
NC(=O)c1sc2cncc(-c3ccoc3)c2c1N	< 40	6.30 to 7.00	> 40	–
NC(=O)c1cc2c(-c3ccccc3OC(F)(F)F)cncc2s1	< 40	< 6.30	> 40	–
NC(=O)c1sc2cncc(-c3ccc4cc[nH]c4c3)c2c1N	> 40	6.30 to 7.00	> 40	–
NC(=O)c1sc2cncc(-c3ccc4c(c3)OCCO4)c2c1N	> 40	6.30 to 7.00	< 40	–
NC(=O)c1cc2c(N3CCOCC3)cncc2s1	< 40	6.30 to 7.00	> 40	–
COc1ccccc1-c1cncc2sc(C(N)=O)c(N)c12	> 40	6.30 to 7.00	> 40	–
COc1ncc(-c2cncc3sc(C(N)=O)cc23)c(OC)n1	> 40	< 6.30	> 40	–

Compound	CC50 at 3 days ([1]; Table 5) [µM]	pIC50 ([2]; Table 5, read-out: U1 IC50)	CC50 at 48 h [3] [µM]	other results
CCOc1ncccc1-c1cncc2sc(C(N)=O)c(N)c12	> 40	6.30 to 7.00	> 40	–
NC(=O)c1sc2cncc(N3CCN(C=O)CC3)c2c1N	> 40	< 6.30	< 40	–
CN(C)c1cncc2sc(C(N)=O)c(N)c12	> 40	6.30 to 7.00	< 40	–
CN(C)c1cccc(-c2cncc3sc(C(N)=O)c(N)c23)c1	> 40	6.30 to 7.00	< 40	–
NC(=O)c1sc2cncc(N3CCCC(COc4ccccc4F)C3)c2c1N (stereo not drawn)	< 40	< 6.30	< 40	–
NC(=O)c1sc2cncc(N3CCCC3)c2c1N	> 40	6.30 to 7.00	–	–
NC(=O)c1sc2cncc(-c3ccccc3)c2c1N	> 40	6.30 to 7.00	–	–
NC(=O)c1sc2nc(-c3cccnc3)ccc2c1N	–	–	–	Tat hybrid cell viability at 50,000 nM [4]: X (X = >60%); EC50 at 48 h [3]: < 40 µM
COC(=O)c1sc2nc(C)cc(C)c2c1N	–	–	–	Tat hybrid cell viability at 50,000 nM [4]: X (X = >60%); EC50 at 48 h [3]: > 40 µM
Cc1nc2sc(C(N)=O)c(N)c2c(C)c1C	–	–	–	Tat hybrid cell viability at 50,000 nM [4]: X (X = >60%); EC50 at 48 h [3]: > 40 µM
COc1ccc(-c2cc(C3CC3)nc3sc(C(N)=O)c(N)c23)cc1	–	–	–	Tat hybrid cell viability at 50,000 nM [4]: X (X = >60%); EC50 at 48 h [3]: > 40 µM
Cc1ccc(-c2c3c(nc4sc(C(N)=O)c(N)c24)CCC3)cc1	–	–	–	CC50 at 3 days ([1]; Table 6): < 40 µM; pIC50 ([2]; Table 6, read-out: U1 IC50): < 6.30; Tat hybrid cell viability at 50,000 nM [4]: X (X = >60%)
Cc1ccnc2sc(C(N)=O)c(N)c12	–	–	–	Tat hybrid cell viability at 50,000 nM [4]: X (X = >60%); EC50 at 48 h [3]: < 40 µM
Cc1cc(C)c2c(N)c(C(=O)O)sc2n1	–	–	–	Tat hybrid cell viability at 50,000 nM [4]: X (X = >60%); EC50 at 48 h [3]: > 40 µM
NC(=O)c1sc2ncccc2c1N	–	–	–	Tat hybrid cell viability at 50,000 nM [4]: Y (Y = 30-60%); EC50 at 48 h [3]: > 40 µM
CC(=O)c1sc2nc(C)cc(C)c2c1N	–	–	–	Tat hybrid cell viability at 50,000 nM [4]: Y (Y = 30-60%); EC50 at 48 h [3]: > 40 µM
COC(=O)c1sc2nccc(N(C)C)c2c1N	–	–	–	Tat hybrid cell viability at 50,000 nM [4]: X (X = >60%); EC50 at 48 h [3]: < 40 µM
CN(C)C(=O)c1sc2ncccc2c1N	–	–	–	Tat hybrid cell viability at 50,000 nM [4]: X (X = >60%); EC50 at 48 h [3]: < 40 µM
CN(C)c1ccnc2sc(C(N)=O)c(N)c12 [Compound 1f, 3-amino-4-(dimethylamino)thieno[2,3-b]pyridine-2-carboxamide]	–	–	–	IC50 [2]: > 500 nM

Compound	CC50 at 3 days ([1]; Table 5) [µM]	pIC50 ([2]; Table 5, read-out: U1 IC50)	CC50 at 48 h [3] [µM]	other results
NC(=O)c1sc2cncc(N3CCC(C(N)=O)CC3)c2c1N [Compound 2c, 1-{3-amino-2-carbamoylthieno[2,3-c]pyridin-4-yl}piperidine-4-carboxamide]	–	–	–	IC50 [2]: 100 to 500 nM
NC(=O)c1sc2cncc(N3CCC4(CC3)OCCO4)c2c1N [Compound 2g, 3-amino-4-{1,4-dioxa-8-azaspiro[4.5]decan-8-yl}thieno[2,3-c]pyridine-2-carboxamide]	–	–	–	IC50 [2]: 100 to 500 nM
NC(=O)c1sc2cncc(N3CCC(F)(F)CC3)c2c1N [Compound 2h, 3-amino-4-(4,4-difluoropiperidin-1-yl)thieno[2,3-c]pyridine-2-carboxamide]	–	–	–	IC50 [2]: 100 to 500 nM
NC(=O)c1sc2nccc(N3CCc4ccccc4C3)c2c1N [Compound 2i, 3-amino-4-(1,2,3,4-tetrahydroisoquinolin-2-yl)thieno[2,3-b]pyridine-2-carboxamide]	–	–	–	IC50 [2]: < 100 nM
NC(=O)c1sc2cncc(N3CCC(Oc4ccccc4)CC3)c2c1N [Compound 2j, 3-amino-4-(4-phenoxypiperidin-1-yl)thieno[2,3-c]pyridine-2-carboxamide]	–	–	–	IC50 [2]: < 100 nM
Cc1noc(C2CCCN(c3cncc4sc(C(N)=O)c(N)c34)C2)n1 (stereo not drawn) [Compound 2k, 3-amino-4-[3-(3-methyl-1,2,4-oxadiazol-5-yl)piperidin-1-yl]thieno[2,3-c]pyridine-2-carboxamide]	–	–	–	IC50 [2]: > 500 nM
COc1ccc(-c2cncc3sc(C(N)=O)c(N)c23)cc1 [Compound 3a, 3-amino-4-(4-methoxyphenyl)thieno[2,3-c]pyridine-2-carboxamide]	–	–	–	pIC50 [2, 5]: > 7.00
NC(=O)c1sc2cncc(-c3ccc4c(c3)CCO4)c2c1N [Compound 3e, 3-amino-4-(2,3-dihydro-1-benzofuran-5-yl)thieno[2,3-c]pyridine-2-carboxamide]	–	–	–	pIC50 [2, 5]: > 7.00
NC(=O)c1sc2cncc(-c3ccc4c(c3)OCO4)c2c1N [Compound 3f, 3-amino-4-(2H-1,3-benzodioxol-5-yl)thieno[2,3-c]pyridine-2-carboxamide]	–	–	–	pIC50 [2, 5]: 6.30 to 7.00
N#Cc1ccc(-c2cncc3sc(C(N)=O)cc23)cc1F [Compound 4c, 4-(4-cyano-3-fluorophenyl)thieno[2,3-c]pyridine-2-carboxamide]	–	–	–	pIC50 [2, 5]: 6.30 to 7.00
N#Cc1ccccc1-c1cncc2sc(C(N)=O)cc12 [Compound 4d, 4-(2-cyanophenyl)thieno[2,3-c]pyridine-2-carboxamide]	–	–	–	pIC50 [2, 5]: < 6.30
NC(=O)c1cc2c(-c3ccc4c(c3)OCO4)cncc2s1 [Compound 4f, 4-(2H-1,3-benzodioxol-5-yl)thieno[2,3-c]pyridine-2-carboxamide]	–	–	–	pIC50 [2, 5]: > 7.00
NC(=O)c1cc2c(-c3cccc(-c4ccccc4)c3)cncc2s1 [Compound 4j, 4-(3-phenylphenyl)thieno[2,3-c]pyridine-2-carboxamide]	–	–	–	pIC50 [2, 5]: 6.30 to 7.00
COc1ccc(-c2cncc3sc(C(N)=O)c(N)c23)cc1 [drawing 136]	> 40	> 7.00	< 40	–
NC(=O)c1cc2c(-c3ccc4c(c3)OCO4)cncc2s1 [drawing 137]	< 40	> 7.00	< 40	–
NC(=O)c1sc2cncc(N3CCC(Oc4ccccc4)CC3)c2c1N [drawing 139]	< 40	> 7.00	> 40	–
N#Cc1ccc(-c2cncc3sc(C(N)=O)cc23)cc1F [drawing 143]	–	6.30 to 7.00	> 40	–
NC(=O)c1cc2c(-c3cccc(-c4ccccc4)c3)cncc2s1 [drawing 145]	< 40	6.30 to 7.00	> 40	–
NC(=O)c1sc2cncc(-c3ccc4c(c3)CCO4)c2c1N [drawing 151]	> 40	> 7.00	< 40	–
